Assay in all cases: microscale thermophoresis
Common to all, as to assay type: binding

Experiment [1] concerns the target T1, septin6 (Homo sapiens, UniProt Q14141).
T1 sequence (Q14141 2-434): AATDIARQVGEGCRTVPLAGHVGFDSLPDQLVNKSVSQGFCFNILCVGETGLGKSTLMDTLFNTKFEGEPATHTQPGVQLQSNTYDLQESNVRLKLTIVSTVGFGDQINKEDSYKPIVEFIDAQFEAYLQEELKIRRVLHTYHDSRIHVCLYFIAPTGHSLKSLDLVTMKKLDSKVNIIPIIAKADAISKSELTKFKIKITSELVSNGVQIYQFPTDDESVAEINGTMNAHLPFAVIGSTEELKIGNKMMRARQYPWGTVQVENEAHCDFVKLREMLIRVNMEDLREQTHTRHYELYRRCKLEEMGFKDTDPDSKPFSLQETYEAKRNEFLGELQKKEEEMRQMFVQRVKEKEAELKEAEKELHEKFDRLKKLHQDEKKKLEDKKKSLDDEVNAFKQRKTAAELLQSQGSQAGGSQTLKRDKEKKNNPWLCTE

Experiment [2] concerns the target T2, septin7 (Homo sapiens, UniProt Q16181).
T2 sequence (Q16181 2-437): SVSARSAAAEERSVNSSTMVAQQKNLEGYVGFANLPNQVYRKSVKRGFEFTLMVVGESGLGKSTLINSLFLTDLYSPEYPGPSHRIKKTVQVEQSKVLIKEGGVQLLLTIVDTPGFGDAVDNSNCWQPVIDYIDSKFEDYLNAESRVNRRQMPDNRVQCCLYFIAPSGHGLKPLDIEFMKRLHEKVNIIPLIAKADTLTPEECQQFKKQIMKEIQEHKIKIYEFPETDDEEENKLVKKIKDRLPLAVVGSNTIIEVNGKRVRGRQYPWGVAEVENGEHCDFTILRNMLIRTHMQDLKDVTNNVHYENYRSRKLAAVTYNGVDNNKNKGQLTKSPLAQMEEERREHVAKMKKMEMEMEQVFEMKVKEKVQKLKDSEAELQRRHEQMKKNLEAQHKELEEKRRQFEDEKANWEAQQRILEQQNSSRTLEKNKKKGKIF

In experiment [3] the target is T3, septin2 (Homo sapiens, UniProt Q15019).
T3 sequence (Q15019 1-361): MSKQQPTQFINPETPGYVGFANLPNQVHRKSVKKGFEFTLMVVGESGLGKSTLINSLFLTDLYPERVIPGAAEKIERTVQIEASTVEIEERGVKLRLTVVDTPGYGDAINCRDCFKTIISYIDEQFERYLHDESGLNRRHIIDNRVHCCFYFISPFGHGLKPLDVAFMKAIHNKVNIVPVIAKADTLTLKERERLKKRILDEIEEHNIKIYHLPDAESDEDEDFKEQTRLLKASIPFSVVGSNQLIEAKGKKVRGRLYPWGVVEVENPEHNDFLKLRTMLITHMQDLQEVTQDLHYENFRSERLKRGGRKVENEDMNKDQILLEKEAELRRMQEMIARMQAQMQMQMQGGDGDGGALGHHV

The term Kd denotes the free concentration of one partner at which half of the binding sites on the other are occupied at equilibrium, for simple one-to-one binding. Consider `OC1(c2ccc(Cl)c(C(F)(F)F)c2)CCN(CCCC(c2ccc(F)cc2)c2ccc(F)cc2)CC1` [PFD, penfluridol], for which the Kd stood at 43.1 µM in experiment [1], 0.98 µM in experiment [2] and 54.8 µM in experiment [3].
